Assay results as given in US20240383870A1, “HETEROCYCLIC ALDEHYDE TRAPPING COMPOUNDS AND USES THEREOF” (Aldeyra Therapeutics, Inc., priority 2021, published 2024).

Assays:
Assay type in all cases: in vivo
KC = experiment: Acute LPS-induced sepsis in C57BL/6 mice: KC cytokine detection assay; conditions: LPS-challenged mice, plasma at 6.5 h, unpaired t-test vs vehicle
Text: FIG. 20 is a graph showing the results of a KC cytokine detection assay in samples collected from mouse subjects after administration of compounds of the present disclosure.
(§1) The primary objective of this study was to collect plasma samples of lipopolysaccharide (LPS) challenged C57BL/6 mice after dose of test compounds to provide a cytokine profile as impacted by prophylactic treatments. This study models acute sepsis, which is a systemic inflammatory syndrome initiated by Gram-negative and Gram-positive bacteria and fungi which infect the lungs, abdomen, bloodstream, and renal or genitourinary tracts. Sepsis patients ultimately die of multiorgan failure which is caused by extensive tissue hypo-oxygenation due to ongoing microvascular leakage, disseminated intravascular coagulation, compromised energy production, and metabolic alterations. Sepsis is characterized by an early systemic inflammatory response phase featuring symptoms, such as tachycardia, fever, hyperventilation, and activation of the complement and coagulation cascades. However, it is now appreciated that a compensatory anti-inflammatory response phase follows, characterized by neuroendocrine-mediated immunosuppression. Since these processes are the result of interaction between cells of inflammation and organs, investigation of the treatment of this syndrome requires the use of intact animal models. The use of ten mice per group allows useful statistical modelling of the results.
(§2) For the data shown in Table 2A, 103 mice (female, 18-22 gram, C57BL/6) were purchased from ENVIGO. The mice were housed in 20 cages of 5 mice per cage with 1 cage of 3 mice as extra. The cages had filter tops and autoclaved bedding, and the animals were placed in quarantine with daily inspection. The treatment groups are detailed in Table 2A below. 10 mice were included in each group. The mice were dosed by oral gavage (PO) at 10 ml/kg as per the table below. MC=methyl cellulose.
as §2, with “2B, 185” for “2A, 103”, “37” for “20”, “cage.” for “cage with 1 cage of 3 mice as extra.”, “2B” for “2A”, “(P0)” for “(PO)”
(§3) At T=0 h, the mice were dosed with one of the test compounds as described in the above table.
(§4) At T=0.5 h, the mice were injected IP with 1.5 mg/kg […] (Sigma).
(§5) At T=6.5 h, all mice were anesthetized and exsanguinated into pre-chilled EDTA-treated tubes. The blood was processed to plasma which was stored in labeled 0.5 polypropylene snap-cap tubes (0.5 mL Eppendorf Safe-Lock Tubes (Fisher Scientific) at −80° C.
(§6) Preparation of vehicle: 1.0 gram of methyl cellulose (Sigma) was dissolved in 200 mL of water (USP purified) to make a solution of 0.5% methyl cellulose in water. Preparation of LPS solution: 6 mg of LPS (from Escherichia Coli 055:B5, Cat #L2880, Sigma Lot #057m4013) was dissolved in 20 ml of saline to give a LPS solution of 0.3 mg/ml. All mice were injected with 5 ml/kg (1.5 mg/kg) at the scheduled time by intraperitoneal injection.
(§7) A 32-plex cytokine panel was obtained from Eve Technologies. Each cytokine was assessed based against a 7 point curve range in duplicate. The average of the two replicate analyses was used for statistics. Unpaired t-tests were performed using Excel™ contrasting vehicle against each treatment group. One star indicates P<0.05. Two stars indicates P<0.01. Three stars indicates P<0.001. Four stars indicates P<0.0001. Most, but not all, statistically significant results are indicated with star(s).

IL-3 = experiment: Acute LPS-induced sepsis in C57BL/6 mice: IL-3 cytokine detection assay; conditions: LPS-challenged mice, plasma at 6.5 h, unpaired t-test vs vehicle
IL-12(p70) = experiment: Acute LPS-induced sepsis in C57BL/6 mice: IL-12(p70) cytokine detection assay; conditions: 75 mpk PO; LPS-challenged mice, plasma at 6.5 h; unpaired t-test vs vehicle
Text: FIG. 16 is a graph showing the results of an IL-12(p70) cytokine detection assay in samples collected from mouse subjects after administration of compounds of the present disclosure.
as §1
as §2, with “The mice were dosed by oral gavage (PO) at 10 ml/kg as per the table below.” left out
as §2, with “2B, 185” for “2A, 103”, “37” for “20”, “cage.” for “cage with 1 cage of 3 mice as extra.”, “2B” for “2A”, “(P0)” for “(PO)”
as §3, §4, §5, §6
A 32-plex cytokine panel was obtained from Eve Technologies. Each cytokine was assessed based against a 7 point curve range in duplicate. The average of the two replicate analyses was used for statistics. Unpaired t-tests were performed using Excel™ contrasting vehicle against each treatment group. One star indicates P<0.05. […]

IL-13 = experiment: Acute LPS-induced sepsis in C57BL/6 mice: IL-13 cytokine detection assay; conditions: 75 mpk PO; LPS-challenged mice, plasma at 6.5 h; unpaired t-test vs vehicle
Text: FIG. 17 is a graph showing the results of an IL-13 cytokine detection assay in samples collected from mouse subjects after administration of compounds of the present disclosure.
as §1, §2
as §2, with “2B, 185” for “2A, 103”, “37” for “20”, “cage.” for “cage with 1 cage of 3 mice as extra.”, “2B” for “2A”, “(P0)” for “(PO)”
as §3, §4, §5, §6
A 32-plex cytokine panel was obtained from Eve Technologies. Each cytokine was assessed based against a 7 point curve range in duplicate. The average of the two replicate analyses was used for statistics. […]

[1] = system: leukemia inhibitory factor (LIF); experiment: Acute LPS-induced sepsis in C57BL/6 mice: leukemia inhibitory factor (LIF) cytokine detection assay; conditions: 75 mpk PO; LPS-challenged mice, plasma at 6.5 h; unpaired t-test vs vehicle
Text: FIG. 21 is a graph showing the results of a leukemia inhibitory factor (LIF) cytokine detection assay in samples collected from mouse subjects after administration of compounds of the present disclosure. LIF is an interleukin 6 class cytokine that affects cell growth by inhibiting differentiation.
as §1, §2
as §2, with “2B, 185” for “2A, 103”, “37” for “20”, “cage.” for “cage with 1 cage of 3 mice as extra.”, “2B” for “2A”, “(P0)” for “(PO)”
as §3, §4, §5, §6
(§8) A 32-plex cytokine panel was obtained from Eve Technologies. Each cytokine was assessed based against a 7 point curve range in duplicate. […]

MIP2(CXCL2) = experiment: Acute LPS-induced sepsis in C57BL/6 mice: MIP2(CXCL2) cytokine detection assay; conditions: LPS-challenged mice, plasma at 6.5 h, unpaired t-test vs vehicle
Text: FIG. 27 is a graph showing the results of a MIP2(CXCL2) cytokine detection assay in samples collected from mouse subjects after administration of compounds of the present disclosure.
as §1
as §2, with “The mice were dosed by oral gavage (PO) at 10 ml/kg as per the table below.” left out
as §2, with “2B, 185” for “2A, 103”, “37” for “20”, “cage.” for “cage with 1 cage of 3 mice as extra.”, “2B” for “2A”, “(P0)” for “(PO)”
as §3, §4
(§9) At T=6.5 h, all mice were anesthetized and exsanguinated into pre-chilled EDTA-treated tubes. […]
as §8

IL-7 = experiment: Acute LPS-induced sepsis in C57BL/6 mice: IL-7 cytokine detection assay; conditions: 100 mpk IP; LPS-challenged mice, plasma at 6.5 h; unpaired t-test vs vehicle
IL-10 = experiment: Acute LPS-induced sepsis in C57BL/6 mice: IL-10 cytokine detection assay; conditions: LPS-challenged mice, plasma at 6.5 h, unpaired t-test vs vehicle
IL-15 = experiment: Acute LPS-induced sepsis in C57BL/6 mice: IL-15 cytokine detection assay; conditions: 100 mpk IP; LPS-challenged mice, plasma at 6.5 h; unpaired t-test vs vehicle
MCP-1(CCL2) = experiment: Acute LPS-induced sepsis in C57BL/6 mice: MCP-1(CCL2) cytokine detection assay; conditions: LPS-challenged mice, plasma at 6.5 h, unpaired t-test vs vehicle
MIP-1a(CCL3) = experiment: Acute LPS-induced sepsis in C57BL/6 mice: MIP-1a(CCL3) cytokine detection assay; conditions: 100 mpk IP; LPS-challenged mice, plasma at 6.5 h; unpaired t-test vs vehicle
IFNγ = experiment: Acute LPS-induced sepsis in C57BL/6 mice: IFNγ cytokine detection assay; conditions: 75 mpk PO; LPS-challenged mice, plasma at 6.5 h; unpaired t-test vs vehicle
IL-17 = experiment: Acute LPS-induced sepsis in C57BL/6 mice: IL-17 cytokine detection assay; conditions: 75 mpk PO; LPS-challenged mice, plasma at 6.5 h; unpaired t-test vs vehicle
Text: FIG. 19 is a graph showing the results of an IL-17 cytokine detection assay in samples collected from mouse subjects after administration of compounds of the present disclosure.
as §1
as §2, with “The mice were dosed by oral gavage (PO) at 10 ml/kg as per the table below.” left out
as §2, with “2B, 185” for “2A, 103”, “37” for “20”, “cage.” for “cage with 1 cage of 3 mice as extra.”, “2B” for “2A”, “(P0)” for “(PO)”
as §3, §4, §9, §8

M-CSF (CSF1) = experiment: Acute LPS-induced sepsis in C57BL/6 mice: M-CSF (CSF1) cytokine detection assay; conditions: LPS-challenged mice, plasma at 6.5 h, unpaired t-test vs vehicle
Text: FIG. 24 is a graph showing the results of an M-CSF (CSF1) cytokine detection assay in samples collected from mouse subjects after administration of compounds of the present disclosure. M-CSF causes hematopoietic stem cells to differentiate into macrophages.
as §1, §2
as §2, with “2B, 185” for “2A, 103”, “37” for “20”, “cage.” for “cage with 1 cage of 3 mice as extra.”, “2B” for “2A”, “(P0)” for “(PO)”
as §3, §4, §5, §6, §7

CC(C)(O)c1cc(F)c(F)cc1N [Compound I-27, 2-(2-Amino-4,5-difluorophenyl) propan-2-ol]
KC: significant cytokine change vs. vehicle (KC; 200 mpk PO): * (One star indicates P<0.05)

CC(O)(c1ccc(C(F)(F)F)cc1N)C(F)(F)F (stereo not drawn) [Compound I-33, 2-(2-Amino-4-(trifluoromethyl)phenyl)-1,1,1-trifluoropropan-2-ol]
IL-3: significant cytokine change vs. vehicle (IL-3; 75 mpk PO): ** (Two stars indicates P<0.01)
IL-12 (p70): significant cytokine change vs. vehicle (IL-12(p70)): * (One star indicates P<0.05)
IL-13: significant cytokine change vs. vehicle (IL-13): ** (Two stars indicates P<0.01)
KC: significant cytokine change vs. vehicle (KC; 75 mpk PO): ** (Two stars indicates P<0.01)
LIF: significant cytokine change vs. vehicle [1]: **** (Four stars indicates P<0.0001)
MIP-2: significant cytokine change vs. vehicle (MIP2(CXCL2); 75 mpk PO): ** (Two stars indicates P<0.01)

CC(O)(c1cccc2[nH]nc(N)c12)C(F)(F)F (stereo not drawn) [Compound I-9, 2-(3-amino-1H-indazol-4-yl)-1,1,1-trifluoropropan-2-ol]
IL-7: significant cytokine change vs. vehicle (IL-7): *** (Three stars indicates P<0.001)
IL-10: significant cytokine change vs. vehicle (IL-10; 100 mpk IP): **** (Four stars indicates P<0.0001)
IL-15: significant cytokine change vs. vehicle (IL-15): ** (Two stars indicates P<0.01)
MCP-1: significant cytokine change vs. vehicle (MCP-1(CCL2); 100 mpk IP): * (One star indicates P<0.05)
MIP-1a: significant cytokine change vs. vehicle (MIP-1a(CCL3)): ** (Two stars indicates P<0.01)
MIP-2: significant cytokine change vs. vehicle (MIP2(CXCL2); 100 mpk IP): * (One star indicates P<0.05)

Cc1cnc(C(C)(C)O)c(N)c1 [Compound I-32, 2-(3-Amino-5-methylpyridin-2-yl) propan-2-ol]
IFNy: significant cytokine change vs. vehicle (IFNγ): **** (Four stars indicates P<0.0001)
IL-10: significant cytokine change vs. vehicle (IL-10; 75 mpk PO): * (One star indicates P<0.05)
IL-12 (p70): significant cytokine change vs. vehicle (IL-12(p70)): * (One star indicates P<0.05)
IL-13: significant cytokine change vs. vehicle (IL-13): *** (Three stars indicates P<0.001)
IL-17: significant cytokine change vs. vehicle (IL-17): * (One star indicates P<0.05)
LIF: significant cytokine change vs. vehicle [1]: **** (Four stars indicates P<0.0001)
M-CSF: significant cytokine change vs. vehicle (M-CSF (CSF1); 75 mpk PO): **** (Four stars indicates P<0.0001)

CC(O)(c1sc2ccc(C(F)(F)F)cc2c1N)C(F)(F)F (stereo not drawn) [Compound I-16, 2-(3-Amino-5-(trifluoromethyl)benzo[b]thiophen-2-yl)-1,1,1-trifluoropropan-2-ol]
IL-3: significant cytokine change vs. vehicle (IL-3; 200 mpk PO): * (One star indicates P<0.05)
IL-10: significant cytokine change vs. vehicle (IL-10; 200 mpk PO): ** (Two stars indicates P<0.01)
MCP-1: significant cytokine change vs. vehicle (MCP-1(CCL2); 200 mpk PO): * (One star indicates P<0.05)
M-CSF: significant cytokine change vs. vehicle (M-CSF (CSF1); 200 mpk PO): **** (Four stars indicates P<0.0001)
